Results taken from patent publication US9073855B2, “BCL-2 selective apoptosis-inducing agents for the treatment of cancer and immune diseases” (AbbVie Inc., priority 2008, dated 2015).

Experiments:
GST-Bcl-2 = GST-Bcl-2 (Homo sapiens, UniProt P10415); test: TR-FRET binding assay, GST-Bcl-2 with F-Bak peptide probe; details: for Ki: TR-FRET Binding Affinity; for Binding selectivity ratio (Bcl-XL Ki/Bcl-2 Ki): TR-FRET, Bcl-XL Ki divided by Bcl-2 Ki
Outline: (§1)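 Ki was derived with Wang's equation for competitive binding of two ligands. The read-out was time-resolved fluorescence after a 3 h room-temperature incubation, using a Tb-labelled antibody donor and the F-Bak peptide acceptor (excitation 340/35 nm). Test compounds entered as DMSO serial dilutions starting at 50 μM, which was the 2× concentration.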

GST-Bcl-XL = GST-Bcl-XL (Homo sapiens, UniProt Q07817); test: TR-FRET binding assay, GST-Bcl-XL with F-Bak peptide probe; details: TR-FRET Binding Affinity
GST-Bcl-XL, sequence (Q07817 whole entry): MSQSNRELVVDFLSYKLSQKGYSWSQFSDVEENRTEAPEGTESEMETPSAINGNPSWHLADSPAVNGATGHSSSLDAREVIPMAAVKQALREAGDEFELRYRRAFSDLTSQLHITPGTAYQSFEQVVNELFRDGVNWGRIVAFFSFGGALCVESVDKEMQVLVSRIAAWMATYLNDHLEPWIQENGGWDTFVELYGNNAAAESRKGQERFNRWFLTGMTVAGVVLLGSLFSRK
Outline: as §1

[1] = GST-Bcl-XL, F-Bak peptide probe

GST-Bcl-2, sequence (P10415 whole entry): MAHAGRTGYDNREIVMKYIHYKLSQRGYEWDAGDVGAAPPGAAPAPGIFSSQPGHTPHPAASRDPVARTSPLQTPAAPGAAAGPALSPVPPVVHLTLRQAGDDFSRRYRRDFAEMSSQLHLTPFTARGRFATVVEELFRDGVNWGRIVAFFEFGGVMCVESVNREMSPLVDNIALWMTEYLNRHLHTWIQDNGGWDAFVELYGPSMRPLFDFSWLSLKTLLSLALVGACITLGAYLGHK

SMILES | Ki (GST-Bcl-2) | Binding selectivity ratio (Bcl-XL Ki/Bcl-2 Ki) (GST-Bcl-2) | Ki (GST-Bcl-XL) | Ki (GST-Bcl-2; GST-Bcl-2, F-Bak peptide probe) | Ki (GST-Bcl-XL; [1])
CC1(C)CCC(CN2CCN(c3ccc(C(=O)NS(=O)(=O)c4cnc(OCC5(F)CCOCC5)c(Cl)c4)c(Oc4cccc5[nH]nnc45)c3)CC2)=C(c2ccc(Cl)cc2)C1 [Example 515, 2-(1H-benzotriazol-4-yloxy)-N-({5-chloro-6-[(4-fluorotetrahydro-2H-pyran-4-yl)methoxy]pyridin-3-yl}sulfonyl)-4-(4-{[2-(4-chlorophenyl)-4,4-dimethylcyclohex-1-en-1-yl]methyl}piperazin-1-yl)benzamide] | < 0.01 nM | >13994.0 | 140 nM |  | 
CC1(C)CCC(CN2CCN(c3ccc(C(=O)NS(=O)(=O)c4ccc(NC[C@H]5CN(C6CC6)CCO5)c([N+](=O)[O-])c4)c(Oc4cccc5[nH]nnc45)c3)CC2)=C(c2ccc(Cl)cc2)C1 [Example 527, 2-(1H-benzotriazol-4-yloxy)-4-(4-{[2-(4-chlorophenyl)-4,4-dimethylcyclohex-1-en-1-yl]methyl}piperazin-1-yl)-N-{[4-({[(2S)-4-cyclopropylmorpholin-2-yl]methyl}amino)-3-nitrophenyl]sulfonyl}benzamide] | < 0.01 nM | >421.9 | 4.22 nM |  | 
O=C(NS(=O)(=O)c1ccc(NCC2CCOCC2)c(S(=O)(=O)C(F)(F)F)c1)c1ccc(N2CCN(Cc3ccccc3-c3ccc(Cl)cc3)CC2)cc1Oc1ccccc1 [Example 163, 4-{4-[(4′-chloro-1,1′-biphenyl-2-yl)methyl]piperazin-1-yl}-2-phenoxy-N-({4-[(tetrahydro-2H-pyran-4-ylmethyl)amino]-3-[(trifluoromethyl)sulfonyl]phenyl}sulfonyl)benzamide] |  |  |  | 5.62 nM | > 660 nM
CC(C)N(C)CCCNc1ccc(S(=O)(=O)NC(=O)c2ccc(N3CCN(Cc4ccccc4-c4ccc(Cl)cc4)CC3)cc2Oc2ccccc2)cc1[N+](=O)[O-] [Example 93, 4-{4-[(4′-chloro-1,1′-biphenyl-2-yl)methyl]piperazin-1-yl}-N-{[4-({3-[isopropyl(methyl)amino]propyl}amino)-3-nitrophenyl]sulfonyl}-2-phenoxybenzamide] |  |  |  | 0.231 nM | 13.9 nM
CC1(C)CCC(CN2CCN(c3ccc(C(=O)NS(=O)(=O)c4cnc(OCC5(F)CCC(C)(O)CC5)c(Cl)c4)c(Oc4cccc5[nH]ncc45)c3)CC2)=C(c2ccc(Cl)cc2)C1 (stereo not drawn) [Example 512, N-({5-chloro-6-[(cis-1-fluoro-4-hydroxy-4-methylcyclohexyl)methoxy]pyridin-3-yl}sulfonyl)-4-(4-{[2-(4-chlorophenyl)-4,4-dimethylcyclohex-1-en-1-yl]methyl}piperazin-1-yl)-2-(1H-indazol-4-yloxy)benzamide] | < 0.01 nM | >1733.8 | 17.3 nM |  | 
CC1(C)CCC(CN2CCN(c3ccc(C(=O)NS(=O)(=O)c4ccc(OCC5(F)CCOCC5)c(Cl)c4)c(Oc4cccc5[nH]cnc45)c3)CC2)=C(c2ccc(Cl)cc2)C1 [Example 499, 2-(1H-benzimidazol-4-yloxy)-N-({3-chloro-4-[(4-fluorotetrahydro-2H-pyran-4-yl)methoxy]phenyl}sulfonyl)-4-(4-{[2-(4-chlorophenyl)-4,4-dimethylcyclohex-1-en-1-yl]methyl}piperazin-1-yl)benzamide] | < 0.01 nM | >10415.0 | 104 nM |  | 
CN(C)CCCNc1ccc(S(=O)(=O)NC(=O)c2ccc(N3CCN(Cc4ccccc4-c4ccc(Cl)cc4)CC3)cc2Oc2cccc3cnccc23)cc1[N+](=O)[O-] [Example 42, 4-{4-[(4′-chloro-1,1′-biphenyl-2-yl)methyl]piperazin-1-yl}-N-[(4-{[3-(dimethylamino)propyl]amino}-3-nitrophenyl)sulfonyl]-2-(isoquinolin-5-yloxy)benzamide] |  |  |  | 0.048 nM | 3.84 nM
CC1(C)CCC(CN2CCN(c3ccc(C(=O)NS(=O)(=O)c4ccc(NC[C@H]5CC[C@H](C#N)CC5)c([N+](=O)[O-])c4)c(Oc4cccc5[nH]cnc45)c3)CC2)=C(c2ccc(Cl)cc2)C1 [Example 462, Trans-2-(1H-benzimidazol-4-yloxy)-4-(4-{[2-(4-chlorophenyl)-4,4-dimethylcyclohex-1-en-1-yl]methyl}piperazin-1-yl)-N-[(4-{[(4-cyanocyclohexyl)methyl]amino}-3-nitrophenyl)sulfonyl]benzamide] | 0.026 nM |  | 18.4 nM |  | 
CC1(C)CCC(CN2CCN(c3ccc(C(=O)NS(=O)(=O)c4ccc(NCC5CCOC5)c([N+](=O)[O-])c4)c(Oc4cccc5[nH]cnc45)c3)CC2)=C(c2ccc(Cl)cc2)C1 (stereo not shown) [Example 439, 2-(1H-benzimidazol-4-yloxy)-4-(4-{[2-(4-chlorophenyl)-4,4-dimethylcyclohex-1-en-1-yl]methyl}piperazin-1-yl)-N-({3-nitro-4-[(tetrahydrofuran-3-ylmethyl)amino]phenyl}sulfonyl)benzamide] | < 0.01 nM |  | 15 nM |  | 
CC1(C)CCC(CN2CCN(c3ccc(C(=O)NS(=O)(=O)c4cnc(OC[C@H]5CC[C@H](C(N)=O)CC5)c(Cl)c4)c(Oc4cccc5[nH]ncc45)c3)CC2)=C(c2ccc(Cl)cc2)C1 [Example 483, N-({6-[(trans-4-carbamoylcyclohexyl)methoxy]-5-chloropyridin-3-yl}sulfonyl)-4-(4-{[2-(4-chlorophenyl)-4,4-dimethylcyclohex-1-en-1-yl]methyl}piperazin-1-yl)-2-(1H-indazol-4-yloxy)benzamide] | < 0.01 nM | >563.0 | 5.63 nM |  | 
CCN(C)C(=O)N1CCOC(CNc2ccc(S(=O)(=O)NC(=O)c3ccc(N4CCN(CC5=C(c6ccc(Cl)cc6)CC(C)(C)CC5)CC4)cc3Oc3cccc4[nH]cnc34)cc2[N+](=O)[O-])C1 (stereo not shown) [Example 507, 2-{[(4-{[2-(1H-benzimidazol-4-yloxy)-4-(4-{[2-(4-chlorophenyl)-4,4-dimethylcyclohex-1-en-1-yl]methyl}piperazin-1-yl)benzoyl]sulfamoyl}-2-nitrophenyl)amino]methyl}-N-ethyl-N-methylmorpholine-4-carboxamide] | < 0.01 nM | >3334.7 | 33.3 nM |  | 
CC1(C)CCC(CN2CCN(c3ccc(C(=O)NS(=O)(=O)c4ccc(OCC5CCC(C)(O)CC5)c([N+](=O)[O-])c4)c(Oc4cccc5[nH]ncc45)c3)CC2)=C(c2ccc(Cl)cc2)C1 (stereo not drawn) [Example 533, 4-(4-{[2-(4-chlorophenyl)-4,4-dimethylcyclohex-1-en-1-yl]methyl}piperazin-1-yl)-N-({4-[(trans-4-hydroxy-4-methylcyclohexyl)methoxy]-3-nitrophenyl}sulfonyl)-2-(H-indazol-4-yloxy)benzamide] | < 0.01 nM | >1044.3 | 10.4 nM |  | 
CC1(C)CCC(CN2CCN(c3ccc(C(=O)NS(=O)(=O)c4ccc(NN5CCN(CCO)CC5)c([N+](=O)[O-])c4)c(Oc4ccc5[nH]ccc5c4)c3)CC2)=C(c2ccc(Cl)cc2)C1 [Example 233, 4-(4-{[2-(4-chlorophenyl)-4,4-dimethylcyclohex-1-en-1-yl]methyl}piperazin-1-yl)-N-[(4-{[4-(2-hydroxyethyl)piperazin-1-yl]amino}-3-nitrophenyl)sulfonyl]-2-(1H-indol-5-yloxy)benzamide] |  |  |  | 0.243 nM | > 660 nM
CN1CCN(c2ccc(S(=O)(=O)NC(=O)c3ccc(N4CCN(CC5=C(c6ccc(Cl)cc6)CC(C)(C)CC5)CC4)cc3Oc3ccc4[nH]ccc4c3)cc2[N+](=O)[O-])CC1 [Example 107, 4-(4-{[2-(4-chlorophenyl)-4,4-dimethylcyclohex-1-en-1-yl]methyl}piperazin-1-yl)-2-(1H-indol-5-yloxy)-N-{[4-(4-methylpiperazin-1-yl)-3-nitrophenyl]sulfonyl}benzamide] |  |  |  | 2.09 nM | 130 nM
COc1ccc(S(=O)(=O)NC(=O)c2ccc(N3CCN(Cc4ccccc4-c4ccc(Cl)cc4)CC3)cc2Oc2ccccc2)cc1 [Example 60, 4-{4-[(4′-chloro-1,1′-biphenyl-2-yl)methyl]piperazin-1-yl}-N-[(4-methoxyphenyl)sulfonyl]-2-phenoxybenzamide] |  |  |  | 18.9 nM | > 660 nM
CN(C)CCCOc1ccc(-c2ccc(Cl)cc2)c(CN2CCN(c3ccc(C(=O)NS(=O)(=O)c4ccc(NCC5CCOCC5)c(S(=O)(=O)C(F)(F)F)c4)c(Oc4ccccc4)c3)CC2)c1 [Example 119, 4-[4-({4′-chloro-4-[3-(dimethylamino)propoxy]-1,1′-biphenyl-2-yl}methyl)piperazin-1-yl]-2-phenoxy-N-({4-[(tetrahydro-2H-pyran-4-ylmethyl)amino]-3-[(trifluoromethyl)sulfonyl]phenyl}sulfonyl)benzamide] |  |  |  | 0.622 nM | 230 nM
CN(C)CCCNc1ccc(S(=O)(=O)NC(=O)c2ccc(N3CCN(CC4=C(c5ccc(Cl)cc5)CCC(C)(C)C4)CC3)cc2Oc2ccc3[nH]ccc3c2)cc1[N+](=O)[O-] [Example 51, 4-(4-{[2-(4-chlorophenyl)-5,5-dimethylcyclohex-1-en-1-yl]methyl}piperazin-1-yl)-N-[(4-{[3-(dimethylamino)propyl]amino}-3-nitrophenyl)sulfonyl]-2-(1H-indol-5-yloxy)benzamide] |  |  |  | 0.252 nM | 15.6 nM
O=C(NS(=O)(=O)c1ccc(NCc2cccs2)c([N+](=O)[O-])c1)c1ccc(N2CCN(Cc3ccccc3-c3ccc(Cl)cc3)CC2)cc1Oc1ccccc1 [Example 162, 4-{4-[(4′-chloro-1,1′-biphenyl-2-yl)methyl]piperazin-1-yl}-N-({3-nitro-4-[(thien-2-ylmethyl)amino]phenyl}sulfonyl)-2-phenoxybenzamide] |  |  |  | 1.35 nM | 167 nM
